ChEMBL document CHEMBL3769326, “Discovery of fluoroquinolone derivatives as potent, selective inhibitors of PI3K” (Medchemcomm, 2015)
pIC50: −log10 of the molar value. One block for each molecule: values may come before it.

Assays:
A549 = assay: Antiproliferative activity against human A549 cells after 72 hrs by MTT assay; type: functional, cell-based; settings: A549, 72 h
[1] = Cytotoxicity against macrophages after 72 hrs by MTT assay; type: cell-based, Macrophage
[2] = molecular target: Phosphatidylinositol 4,5-bisphosphate 3-kinase catalytic subunit gamma isoform (Homo sapiens, UniProt P48736); assay: Inhibition of human PI3K 110gamma by fluorescence-based immunoassay
Sequence of Phosphatidylinositol 4,5-bisphosphate 3-kinase catalytic subunit gamma isoform (P48736 whole entry, canonical isoform): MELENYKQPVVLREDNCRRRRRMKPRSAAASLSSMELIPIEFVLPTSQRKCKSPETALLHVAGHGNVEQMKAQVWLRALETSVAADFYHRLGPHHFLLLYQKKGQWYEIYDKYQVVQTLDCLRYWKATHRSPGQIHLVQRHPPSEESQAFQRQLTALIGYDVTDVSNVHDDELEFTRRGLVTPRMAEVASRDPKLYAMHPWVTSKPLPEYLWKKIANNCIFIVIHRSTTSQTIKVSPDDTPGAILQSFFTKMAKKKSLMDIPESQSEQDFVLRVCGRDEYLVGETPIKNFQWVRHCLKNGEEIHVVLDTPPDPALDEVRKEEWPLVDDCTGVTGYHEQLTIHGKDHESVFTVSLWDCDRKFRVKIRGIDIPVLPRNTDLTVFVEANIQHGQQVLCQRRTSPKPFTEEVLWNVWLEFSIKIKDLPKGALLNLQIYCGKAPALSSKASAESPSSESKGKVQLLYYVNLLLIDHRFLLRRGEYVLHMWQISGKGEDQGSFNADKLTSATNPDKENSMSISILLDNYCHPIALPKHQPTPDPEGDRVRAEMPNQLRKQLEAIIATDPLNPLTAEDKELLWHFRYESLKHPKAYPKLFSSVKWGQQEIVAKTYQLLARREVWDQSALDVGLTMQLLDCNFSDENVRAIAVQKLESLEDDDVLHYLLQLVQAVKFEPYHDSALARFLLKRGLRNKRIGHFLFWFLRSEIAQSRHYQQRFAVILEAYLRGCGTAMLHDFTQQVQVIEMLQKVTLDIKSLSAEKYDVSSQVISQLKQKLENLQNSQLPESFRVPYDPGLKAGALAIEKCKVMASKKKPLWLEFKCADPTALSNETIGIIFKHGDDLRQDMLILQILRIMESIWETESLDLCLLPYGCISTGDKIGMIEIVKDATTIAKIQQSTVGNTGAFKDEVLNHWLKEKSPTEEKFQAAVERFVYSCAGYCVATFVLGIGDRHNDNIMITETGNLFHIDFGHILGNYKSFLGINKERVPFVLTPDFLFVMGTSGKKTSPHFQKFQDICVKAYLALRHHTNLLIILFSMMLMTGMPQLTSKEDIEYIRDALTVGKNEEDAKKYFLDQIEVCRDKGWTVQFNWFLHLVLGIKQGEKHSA

[3] = molecular target: PI3-kinase p110-alpha/p85-alpha (Homo sapiens, UniProt P42336); assay: Inhibition of human PI3K p110alpha/p85alpha by fluorescence-based immunoassay; type: protein-complex assay
Sequence of PI3-kinase p110-alpha/p85-alpha (P27986 whole entry): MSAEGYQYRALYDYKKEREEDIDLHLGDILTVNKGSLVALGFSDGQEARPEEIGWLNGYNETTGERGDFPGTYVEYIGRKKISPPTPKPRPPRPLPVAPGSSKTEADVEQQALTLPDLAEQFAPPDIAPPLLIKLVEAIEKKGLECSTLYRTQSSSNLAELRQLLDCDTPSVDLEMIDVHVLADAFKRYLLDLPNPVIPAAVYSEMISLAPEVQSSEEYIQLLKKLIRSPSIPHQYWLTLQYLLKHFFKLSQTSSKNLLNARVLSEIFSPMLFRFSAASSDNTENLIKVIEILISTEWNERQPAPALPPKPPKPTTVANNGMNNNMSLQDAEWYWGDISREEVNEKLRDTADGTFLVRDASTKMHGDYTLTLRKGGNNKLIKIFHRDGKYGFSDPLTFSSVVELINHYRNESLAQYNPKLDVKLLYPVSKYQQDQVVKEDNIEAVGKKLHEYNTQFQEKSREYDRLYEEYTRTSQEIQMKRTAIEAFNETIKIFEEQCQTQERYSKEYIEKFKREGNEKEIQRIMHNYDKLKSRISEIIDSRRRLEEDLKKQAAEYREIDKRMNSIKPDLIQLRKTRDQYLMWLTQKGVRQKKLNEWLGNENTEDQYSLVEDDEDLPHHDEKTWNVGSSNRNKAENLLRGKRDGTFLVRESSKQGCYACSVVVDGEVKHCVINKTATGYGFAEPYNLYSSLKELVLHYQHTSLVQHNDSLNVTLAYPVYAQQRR
Sequence of PI3-kinase p110-alpha/p85-alpha (P42336 whole entry): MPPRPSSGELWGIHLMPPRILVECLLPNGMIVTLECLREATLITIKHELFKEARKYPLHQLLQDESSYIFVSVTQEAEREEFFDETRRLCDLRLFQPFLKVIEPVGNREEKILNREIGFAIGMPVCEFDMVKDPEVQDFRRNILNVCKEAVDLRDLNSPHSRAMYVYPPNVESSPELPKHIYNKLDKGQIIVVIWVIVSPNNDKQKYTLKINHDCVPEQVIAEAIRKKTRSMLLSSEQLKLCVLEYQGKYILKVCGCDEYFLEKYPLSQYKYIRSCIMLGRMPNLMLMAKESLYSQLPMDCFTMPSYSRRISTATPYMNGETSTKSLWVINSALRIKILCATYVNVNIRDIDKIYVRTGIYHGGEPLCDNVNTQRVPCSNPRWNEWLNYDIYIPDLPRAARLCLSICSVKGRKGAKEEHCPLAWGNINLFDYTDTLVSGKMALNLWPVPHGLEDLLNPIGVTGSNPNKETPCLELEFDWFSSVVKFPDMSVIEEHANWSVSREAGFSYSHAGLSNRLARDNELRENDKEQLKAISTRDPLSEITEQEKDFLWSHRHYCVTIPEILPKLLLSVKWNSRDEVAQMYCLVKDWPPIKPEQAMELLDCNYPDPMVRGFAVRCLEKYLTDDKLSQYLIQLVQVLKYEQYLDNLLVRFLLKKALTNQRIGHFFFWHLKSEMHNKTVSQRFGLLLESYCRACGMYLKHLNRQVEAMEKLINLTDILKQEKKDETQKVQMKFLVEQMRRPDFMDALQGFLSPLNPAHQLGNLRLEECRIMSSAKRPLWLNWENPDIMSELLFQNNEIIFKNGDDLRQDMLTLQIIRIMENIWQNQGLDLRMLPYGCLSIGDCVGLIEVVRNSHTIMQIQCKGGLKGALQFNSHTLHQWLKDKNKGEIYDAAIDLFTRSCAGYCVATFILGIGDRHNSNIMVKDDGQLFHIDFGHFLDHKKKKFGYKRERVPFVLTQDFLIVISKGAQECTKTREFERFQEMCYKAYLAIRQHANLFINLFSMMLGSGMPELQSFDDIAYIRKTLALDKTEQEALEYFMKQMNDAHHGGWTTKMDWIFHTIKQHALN

HepG2 = assay: cells; settings: Homo sapiens, HepG2, 72 h
MCF7 = assay: cells; settings: Homo sapiens, MCF7, 72 h
HeLa = assay: Antiproliferative activity against human HeLa cells after 72 hrs by MTT assay; type: functional, cell-based
[4] = molecular target: T1, Phosphatidylinositol 4,5-bisphosphate 3-kinase catalytic subunit delta isoform (Homo sapiens, UniProt O00329); assay: Inhibition of human PI3Kdelta by fluorescence-based immunoassay
T1 sequence (O00329 whole entry): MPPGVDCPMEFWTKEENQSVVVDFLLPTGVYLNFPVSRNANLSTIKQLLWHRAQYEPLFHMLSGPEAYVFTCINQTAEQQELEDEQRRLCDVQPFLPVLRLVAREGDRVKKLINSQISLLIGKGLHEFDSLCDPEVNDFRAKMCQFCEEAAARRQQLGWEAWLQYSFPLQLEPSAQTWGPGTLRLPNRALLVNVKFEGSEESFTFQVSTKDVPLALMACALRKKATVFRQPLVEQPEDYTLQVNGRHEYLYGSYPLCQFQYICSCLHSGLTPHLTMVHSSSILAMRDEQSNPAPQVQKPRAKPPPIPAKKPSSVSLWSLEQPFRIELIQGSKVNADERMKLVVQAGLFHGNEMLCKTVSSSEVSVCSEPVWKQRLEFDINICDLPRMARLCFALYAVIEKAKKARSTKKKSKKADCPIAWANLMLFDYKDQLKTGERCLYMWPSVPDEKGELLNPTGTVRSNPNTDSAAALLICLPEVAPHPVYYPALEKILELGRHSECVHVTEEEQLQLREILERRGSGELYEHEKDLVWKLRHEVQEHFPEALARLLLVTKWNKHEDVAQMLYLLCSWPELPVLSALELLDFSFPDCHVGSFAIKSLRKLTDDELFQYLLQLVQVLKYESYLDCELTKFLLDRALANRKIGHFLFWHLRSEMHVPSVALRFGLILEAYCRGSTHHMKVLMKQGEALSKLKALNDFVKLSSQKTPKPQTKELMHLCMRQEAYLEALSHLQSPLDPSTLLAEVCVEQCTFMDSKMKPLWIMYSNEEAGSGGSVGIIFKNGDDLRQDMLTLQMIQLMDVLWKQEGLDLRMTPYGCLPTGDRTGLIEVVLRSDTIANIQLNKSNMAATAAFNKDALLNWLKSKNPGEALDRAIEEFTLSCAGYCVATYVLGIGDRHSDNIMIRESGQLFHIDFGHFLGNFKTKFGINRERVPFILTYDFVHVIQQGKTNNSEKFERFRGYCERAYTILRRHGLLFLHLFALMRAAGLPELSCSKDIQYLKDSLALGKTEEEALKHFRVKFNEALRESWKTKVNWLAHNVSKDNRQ

[5] = molecular target: Phosphatidylinositol 3-kinase regulatory subunit beta/Phosphatidylinositol 4,5-bisphosphate 3-kinase catalytic subunit beta isoform (Homo sapiens, UniProt P42338); assay: Inhibition of human PI3K p110beta/p85beta by fluorescence-based immunoassay; type: protein-complex assay
Sequence of Phosphatidylinositol 3-kinase regulatory subunit beta/Phosphatidylinositol 4,5-bisphosphate 3-kinase catalytic subunit beta isoform (P42338 whole entry, canonical isoform): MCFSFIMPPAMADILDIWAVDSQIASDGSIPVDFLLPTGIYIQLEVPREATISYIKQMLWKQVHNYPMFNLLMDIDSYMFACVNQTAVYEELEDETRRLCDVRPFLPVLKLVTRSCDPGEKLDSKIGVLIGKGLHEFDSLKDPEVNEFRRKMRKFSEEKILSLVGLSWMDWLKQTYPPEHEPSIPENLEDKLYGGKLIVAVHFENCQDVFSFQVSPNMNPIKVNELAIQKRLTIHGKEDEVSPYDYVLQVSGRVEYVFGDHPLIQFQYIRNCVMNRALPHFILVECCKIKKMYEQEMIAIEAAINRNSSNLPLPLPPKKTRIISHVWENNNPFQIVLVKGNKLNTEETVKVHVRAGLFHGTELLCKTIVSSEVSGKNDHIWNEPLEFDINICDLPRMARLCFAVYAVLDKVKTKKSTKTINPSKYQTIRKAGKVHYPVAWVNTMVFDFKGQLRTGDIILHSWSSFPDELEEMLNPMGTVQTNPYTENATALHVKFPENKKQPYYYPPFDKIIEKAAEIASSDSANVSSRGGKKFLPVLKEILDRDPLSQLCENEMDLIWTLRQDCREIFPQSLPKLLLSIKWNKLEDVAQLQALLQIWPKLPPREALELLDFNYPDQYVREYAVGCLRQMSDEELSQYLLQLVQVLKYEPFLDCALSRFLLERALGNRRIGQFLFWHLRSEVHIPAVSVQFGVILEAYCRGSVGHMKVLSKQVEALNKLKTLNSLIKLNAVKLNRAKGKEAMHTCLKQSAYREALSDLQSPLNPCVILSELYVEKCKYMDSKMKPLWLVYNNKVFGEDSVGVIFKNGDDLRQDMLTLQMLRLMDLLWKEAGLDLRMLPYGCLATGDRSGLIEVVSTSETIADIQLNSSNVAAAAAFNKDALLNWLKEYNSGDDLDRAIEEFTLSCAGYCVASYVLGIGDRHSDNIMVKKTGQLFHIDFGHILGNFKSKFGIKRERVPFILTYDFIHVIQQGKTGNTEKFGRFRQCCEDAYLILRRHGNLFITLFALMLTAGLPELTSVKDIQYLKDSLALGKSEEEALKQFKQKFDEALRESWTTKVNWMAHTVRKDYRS
Sequence of Phosphatidylinositol 3-kinase regulatory subunit beta/Phosphatidylinositol 4,5-bisphosphate 3-kinase catalytic subunit beta isoform (O00459 whole entry, further chain, canonical isoform): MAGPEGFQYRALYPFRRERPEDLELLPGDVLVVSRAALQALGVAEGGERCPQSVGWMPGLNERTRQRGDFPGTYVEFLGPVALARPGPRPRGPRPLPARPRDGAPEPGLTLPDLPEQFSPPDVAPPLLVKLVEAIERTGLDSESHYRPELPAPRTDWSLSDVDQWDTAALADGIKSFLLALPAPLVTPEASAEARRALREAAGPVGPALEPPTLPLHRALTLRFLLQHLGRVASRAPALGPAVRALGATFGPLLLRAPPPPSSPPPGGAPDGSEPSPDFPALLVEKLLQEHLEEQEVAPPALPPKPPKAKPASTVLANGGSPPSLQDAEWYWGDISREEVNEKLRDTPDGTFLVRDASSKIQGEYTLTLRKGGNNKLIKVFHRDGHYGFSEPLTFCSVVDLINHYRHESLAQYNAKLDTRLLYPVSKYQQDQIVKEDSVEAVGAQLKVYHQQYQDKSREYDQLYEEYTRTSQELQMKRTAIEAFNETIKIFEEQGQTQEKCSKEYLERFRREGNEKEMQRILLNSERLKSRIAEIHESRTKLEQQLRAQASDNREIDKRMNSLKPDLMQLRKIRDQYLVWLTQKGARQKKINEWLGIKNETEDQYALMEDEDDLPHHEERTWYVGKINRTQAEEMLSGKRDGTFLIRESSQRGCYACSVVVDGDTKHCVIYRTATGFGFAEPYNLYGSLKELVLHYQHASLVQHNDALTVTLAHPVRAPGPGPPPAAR

SMILES: O=C(O)c1cn(C2CC2)c2cc(N3CCN(C(=O)c4cc(Cl)ccc4O)CC3)c(F)cc2c1=O
pIC50 (A549): 3.94 | CC50 at 72 h [1]: 269 µM | pIC50 [2]: 6.76 | pIC50 [3]: 6.02 | pIC50 (HepG2): 4.30 | pIC50 (MCF7): 4.05 | pIC50 (HeLa): 4.19 | pIC50 [4]: 6.26 | pIC50 [5]: < 6.00

SMILES: CCn1cc(C(=O)O)c(=O)c2cc(F)c(N3CCN(C(=O)c4cccnc4Cl)CC3)cc21
pIC50 (A549): 3.55 | pIC50 [2]: 6.59 | pIC50 [3]: < 6.00 | pIC50 (HepG2): < 3.00 | pIC50 (MCF7): 3.67 | pIC50 (HeLa): 4.05 | pIC50 [4]: < 6.00 | pIC50 [5]: < 6.00

SMILES: CCn1cc(C(=O)O)c(=O)c2cc(F)c(N3CCN(C(=O)c4c(C)cccc4O)CC3)cc21
pIC50 (A549): 3.92 | CC50 at 72 h [1]: 343 µM | pIC50 [2]: 6.76 | pIC50 [3]: 6.04 | pIC50 (HepG2): 4.56 | pIC50 (MCF7): 3.97 | pIC50 (HeLa): 4.27 | pIC50 [4]: 6.17 | pIC50 [5]: < 6.00

SMILES: CCn1cc(C(=O)O)c(=O)c2cc(F)c(N3CCN(C(=O)c4ccc(OC)nc4)CC3)cc21
pIC50 (A549): < 3.00 | pIC50 [2]: 6.55 | pIC50 [3]: < 6.00 | pIC50 (HepG2): 3.37 | pIC50 (MCF7): 3.45 | pIC50 (HeLa): 3.81 | pIC50 [4]: < 6.00 | pIC50 [5]: < 6.00

SMILES: O=C(O)c1cn(C2CC2)c2cc(N3CCN(C(=O)c4cccnc4Cl)CC3)c(F)cc2c1=O
pIC50 (A549): < 3.00 | pIC50 [2]: 6.58 | pIC50 [3]: < 6.00 | pIC50 (HepG2): 3.75 | pIC50 (MCF7): 3.82 | pIC50 (HeLa): 3.55 | pIC50 [4]: < 6.00 | pIC50 [5]: < 6.00

SMILES: COc1ccc(C(=O)N2CCN(c3cc4c(cc3F)c(=O)c(C(=O)O)cn4C3CC3)CC2)cn1
pIC50 (A549): 3.17 | pIC50 [2]: 6.55 | pIC50 [3]: < 6.00 | pIC50 (HepG2): 4.18 | pIC50 (MCF7): 4.37 | pIC50 (HeLa): 3.46 | pIC50 [4]: < 6.00 | pIC50 [5]: < 6.00

These reach a higher pIC50 (A549). Values come first.

pIC50 (A549): 5.97 | pIC50 [2]: 6.95 | pIC50 [3]: 6.16 | pIC50 (HepG2): 6.33 | pIC50 (MCF7): 5.42 | pIC50 (HeLa): 5.68 | pIC50 [4]: 6.31 | pIC50 [5]: < 6.00
SMILES: CCn1cc(C(=O)O)c(=O)c2cc(F)c(N3CCN(C(=O)c4cc(OC)ccc4O)CC3)cc21
CC50 at 72 h [1]: 279 µM

pIC50 (A549): 6.48 | pIC50 (MCF7): 6.11 | pIC50 (HeLa): 6.82
SMILES: CC[C@H](Nc1ncnc2[nH]cnc12)c1nc2cccc(F)c2c(=O)n1-c1ccccc1 [IDELALISIB]

pIC50 (A549): 4.06 | pIC50 [2]: 6.73 | pIC50 [3]: 6.23 | pIC50 (HepG2): 3.91 | pIC50 (MCF7): 4.32 | pIC50 (HeLa): 4.59 | pIC50 [4]: 6.14 | pIC50 [5]: < 6.00
SMILES: O=C(O)c1cn(C2CC2)c2cc(N3CCN(C(=O)c4cc([N+](=O)[O-])ccc4O)CC3)c(F)cc2c1=O
CC50 at 72 h [1]: 297 µM

pIC50 (A549): 6.07 | pIC50 [2]: 7.05 | pIC50 [3]: 6.19 | pIC50 (HepG2): 5.59 | pIC50 (MCF7): 6.48 | pIC50 (HeLa): 6.80 | pIC50 [4]: 6.46 | pIC50 [5]: < 6.00
SMILES: COc1ccc(C(=O)N2CCN(c3cc4c(cc3F)c(=O)c(C(=O)O)cn4C3CC3)CC2)c(O)c1
CC50 at 72 h [1]: 311 µM

pIC50 (A549): 6.17 | pIC50 [2]: 7.25 | pIC50 [3]: 6.45 | pIC50 (HepG2): 6.54 | pIC50 (MCF7): 6.96 | pIC50 (HeLa): 7.22 | pIC50 [4]: 6.57 | pIC50 [5]: < 6.00
SMILES: O=C(O)c1cn(C2CC2)c2cc(N3CCN(C(=O)c4cc([N+](=O)[O-])cc([N+](=O)[O-])c4O)CC3)c(F)cc2c1=O
CC50 at 72 h [1]: 365 µM

pIC50 (A549): 5.81 | pIC50 [2]: 7.01 | pIC50 [3]: 6.15 | pIC50 (HepG2): 5.53 | pIC50 (MCF7): 5.92 | pIC50 (HeLa): 6.02 | pIC50 [4]: 6.51 | pIC50 [5]: < 6.00
SMILES: CCn1cc(C(=O)O)c(=O)c2cc(F)c(N3CCN(C(=O)c4cc(Cl)ccc4O)CC3)cc21
CC50 at 72 h [1]: 273 µM

pIC50 (A549): 4.11 | pIC50 [2]: 6.77 | pIC50 [3]: 6.05 | pIC50 (HepG2): 4.44 | pIC50 (MCF7): 4.66 | pIC50 (HeLa): 4.71 | pIC50 [4]: 6.17 | pIC50 [5]: < 6.00
SMILES: O=C(O)c1cn(C2CC2)c2cc(N3CCN(C(=O)c4cc(Br)ccc4O)CC3)c(F)cc2c1=O
CC50 at 72 h [1]: 289 µM

pIC50 (A549): 6.00 | pIC50 [2]: 6.95 | pIC50 [3]: 6.16 | pIC50 (HepG2): 5.49 | pIC50 (MCF7): 5.15 | pIC50 (HeLa): 6.29 | pIC50 [4]: 6.32 | pIC50 [5]: < 6.00
SMILES: CCn1cc(C(=O)O)c(=O)c2cc(F)c(N3CCN(C(=O)c4cc(Br)ccc4O)CC3)cc21
CC50 at 72 h [1]: 266 µM
